Several values for one entry are separate records, joined by “and”; a condition that tells them apart may be missing. Equal values may be shown once. Marks after values point to notes of the source that are not given here.
What was measured:
Assay type in all cases: cell-based, human
[1] = tested on: A549 cells; assay: MTT cell viability assay, A549; details: for IC50: Homo sapiens, A549, MTT, 48 h, mean ± SD, n = 3; for A549 Selectivity Index (SI): SI = IC50 (HEK 293)/IC50 (A549)
Description: (§1) Cell viability assay was performed on the human lung cancer (A549) (ATCC CCL-185), human breast cancer (MCF-7) (ATCC-HTB-22), cervical cancer (HeLa) (ATCC-CCL-2), and human embryonic kidney 293 (HEK293) (ATCC-CRL-1573) cell lines, which were purchased from Deutsche Sammlung von Mikroorganismen und Zellkulturen (DSMZ, Braunschweig, Germany). The cells were maintained in Dulbecco’s modified Eagle’s medium (DMEM), supplemented with 10% fetal bovine serum (FBS), 2 mM L-glutamine, 100 U/mL penicillin, and 100 mg/L streptomycin (Biochrom AG, Berlin, Germany) at 37 °C in a humidified atmosphere of 5% CO2.
(§2) The cytotoxic effect was determined by the MTT (3-(4,5-dimethyl-2-thiazolyl)-2,5-diphenyl-2H-tetrazolium bromide) cell viability assay. Cells were seeded at an initial concentration of 1 × 10^5 cells/mL in 96-well microplates. Cells were then treated with different concentrations (0.5, 5, 10, 25, 50, 100 and 200 µM) of the novel synthesized compounds for 48 h. After the incubation period, the formed formazan crystals were dissolved in dimethyl sulfoxide (DMSO), and the optical density (OD) of the compounds was measured at 570 nm using a spectrophotometer (BMG Labtech, Ortenberg, Germany). Cytotoxicity was expressed as an increase in the mean percentage of cytotoxicity relative to the unexposed control ± standard deviation (SD). […] Control values were set at 0% cytotoxicity. IC50 was calculated by fitting the data to a sigmoidal curve using a four-parameter logistic model and was presented as an average of three independent measurements. […] Doxorubicin was used as a positive control. Each sample was tested in triplicate.
(§3) To evaluate the selectivity of the tested compound(s) toward cancer cells over normal cells, the Selectivity Index (SI) was calculated using the following formula:SI = IC50 (normal cells)/IC50 (cancer cells)
(§4) An SI value greater than 2 was considered to indicate selective cytotoxicity, while values below 2 were interpreted as non-selective. Higher SI values reflect greater therapeutic potential due to reduced toxicity toward normal cells.

[2] = tested on: MCF-7 cells; assay: MTT cell viability assay, MCF-7; details: for IC50: Homo sapiens, MCF7, MTT, 48 h, mean ± SD, n = 3; for MCF-7 Selectivity Index (SI): SI = IC50 (HEK 293)/IC50 (MCF-7)
Description: as §1, §2, §3, §4

[3] = tested on: HeLa cells; assay: MTT cell viability assay, HeLa; details: for IC50: Homo sapiens, HeLa, MTT, 48 h, mean ± SD, n = 3; for HeLa Selectivity Index (SI): SI = IC50 (HEK 293)/IC50 (HeLa)
Description: as §1, §2, §3, §4

[4] = tested on: HEK 293 cells; assay: MTT cell viability assay, non-cancerous HEK 293; details: Homo sapiens, HEK293, 48 h, mean ± SD, n = 3
Description: as §1
The cytotoxic effect was determined by the MTT (3-(4,5-dimethyl-2-thiazolyl)-2,5-diphenyl-2H-tetrazolium bromide) cell viability assay. Cells were seeded at an initial concentration of 1 × 10^5 cells/mL in 96-well microplates. Cells were then treated with different concentrations (0.5, 5, 10, 25, 50, 100 and 200 µM) of the novel synthesized compounds for 48 h. After the incubation period, the formed formazan crystals were dissolved in dimethyl sulfoxide (DMSO), and the optical density (OD) of the compounds was measured at 570 nm using a spectrophotometer (BMG Labtech, Ortenberg, Germany). Cytotoxicity was expressed as an increase in the mean percentage of cytotoxicity relative to the unexposed control ± standard deviation (SD). […] Control values were set at 0% cytotoxicity. IC50 was calculated by fitting the data to a sigmoidal curve using a four-parameter logistic model and was presented as an average of three independent measurements. […] Each sample was tested in triplicate.

[5] = tested on: A549 cells; assay: LDH leakage assay, A549; details: A549, IC50 concentration of compound, 48 h; H2O2 positive control; mean ± SD, n = 3
Description: (§5) One hundred microliters of culture medium was transferred to a new 96-well plate. One hundred microliters of LDH reaction solution was added to each well, and absorbance was measured at 490 nm using an ELISA plate reader (BMG Labtech, Ortenberg, Germany) after 30 min.

[6] = tested on: A549 cells; assay: Total oxidative status (TOS), A549; details: A549, IC50 concentration of compound, 48 h; H2O2 250 µM positive control; mean ± SD, n = 3
Description: (§6) TOS were evaluated using a commercially available kit (Rel Assay Diagnostics®, Gaziantep, Turkey) according to the manufacturer’s instructions. […] The TOS assay quantifies oxidizing agents based on their ability to convert an iron (II) ion chelator complex to iron (III) ions. The results were calibrated against hydrogen peroxide (H2O2, 250 µM) as a positive control for 48 h and expressed as µmol H2O2 equivalents per liter. The analysis was performed in three independent biological replicates (n = 3).

[7] = tested on: A549 cells; assay: Intracellular GSH/GSSG ratio, A549; details: A549, IC50 concentration of compound, 48 h; H2O2 positive control; mean ± SD, n = 3
Description: (§7) Intracellular reduced (GSH) and oxidized (GSSG) glutathione levels were measured using the GSH/GSSG Ratio Detection Assay Kit (Cayman Chemical, Ann Arbor, MI, USA, Cat. No: 703002) according to the manufacturer’s protocol. […] After treatment, cells were washed with cold PBS and lysed with MES buffer provided in the kit.
(§8) To prevent oxidation of GSH to GSSG during processing, samples were deproteinized using the supplied metaphosphoric acid solution and neutralized accordingly. Total glutathione and GSSG levels were measured separately by adding the appropriate buffers and reagents to the wells of a 96-well plate, followed by the addition of DTNB recycling reagent and glutathione reductase. Absorbance was read at 405 nm using a microplate reader (BMG Labtech, Germany). The amount of GSH was calculated by subtracting 2 × GSSG from the total glutathione, and the GSH/GSSG ratio was used to assess intracellular redox status.

[8] = tested on: A549 cells; assay: Cell cycle analysis (PI staining, flow cytometry), A549; details: A549, IC50 concentration, 48 h, mean ± SEM, n = 3
Description: (§9) Cell cycle distribution was assessed by propidium iodide (PI) staining and flow cytometry. HeLa, MCF-7, and A549 cells were seeded in 6-well plates at a density of 1 × 10^5 cells per well and allowed to attach overnight. […] Following exposure, both adherent and floating cells were collected, washed twice with cold phosphate-buffered saline (PBS, pH 7.4), and fixed overnight in 70% cold ethanol at 4 °C. After fixation, the cells were centrifuged and resuspended in 500 µL of PI/RNase staining solution containing 50 µg/mL PI and 100 µg/mL RNase A (Sigma-Aldrich®, St. Louis, MO, USA), followed by incubation in the dark for 30 min at 37 °C. The stained samples were analyzed using a Muse™ Cell Analyzer (Merck, Millipore, Germany) equipped with a 488 nm excitation laser and a 617 nm emission filter. A minimum of 10,000 events per sample were acquired after exclusion of debris and doublets via FSC-A vs. FSC-H gating. The DNA content histograms were generated automatically, and cell populations were expressed as percentages of G0/G1, S, and G2/M phases using the Muse™ Cell Cycle Analysis Software 1.5.0.0. All assays were conducted in triplicate biological repeats (n = 3), and results were reported as mean ± SEM.

[9] = tested on: HeLa cells; assay: LDH leakage assay, HeLa; details: IC50 concentration of compound, 48 h, H2O2 positive control, mean ± SD, n = 3
Description: as §5

[10] = tested on: MCF-7 cells; assay: LDH leakage assay, MCF-7; details: MCF-7, IC50 concentration of compound, 48 h; H2O2 positive control; mean ± SD, n = 3
Description: as §5

[11] = tested on: HeLa cells; assay: Total oxidative status (TOS), HeLa; details: IC50 concentration of compound, 48 h, H2O2 250 µM positive control, mean ± SD, n = 3
Description: as §6

[12] = tested on: MCF-7 cells; assay: Total oxidative status (TOS), MCF-7; details: MCF-7, IC50 concentration of compound, 48 h; H2O2 250 µM positive control; mean ± SD, n = 3
Description: as §6

[13] = tested on: HeLa cells; assay: Intracellular GSH/GSSG ratio, HeLa; details: IC50 concentration of compound, 48 h, H2O2 positive control, mean ± SD, n = 3
Description: as §7, §8

[14] = tested on: MCF-7 cells; assay: Intracellular GSH/GSSG ratio, MCF-7; details: MCF-7, IC50 concentration of compound, 48 h; H2O2 positive control; mean ± SD, n = 3
Description: as §7, §8

[15] = tested on: HeLa cells; assay: Cell cycle analysis (PI staining, flow cytometry), HeLa; details: IC50 concentration, 48 h, mean ± SEM, n = 3
Description: as §9

[16] = tested on: MCF-7 cells; assay: Cell cycle analysis (PI staining, flow cytometry), MCF-7; details: MCF-7, IC50 concentration, 48 h, mean ± SEM, n = 3
Description: as §9

Compound	IC50 [1]	A549 Selectivity Index (SI) [1]	IC50 [2]	MCF-7 Selectivity Index (SI) [2]	IC50 [3]	HeLa Selectivity Index (SI) [3]	IC50 [4]	LDH [5]	TOS [6]	GSH/GSSG [7]	cells in G0/G1 phase [8]	cells in G2/M phase [8]	cells in S phase [8]	LDH [9]	LDH [10]	TOS [11]	TOS [12]	GSH/GSSG [13]	GSH/GSSG [14]	cells in G0/G1 phase [15]	further results
O=c1[nH]c2cc(Cl)c(Cl)cc2[nH]1 [Compound 1, 5,6-Dichloro-1,3-dihydro-2H-benzimidazol-2-one]	29.5 ± 1.7 µM	2.03	41.3 ± 2.4 µM	1.46	31.6 ± 1.82 µM	1.9	60.1 ± 3.47 µM	19.8 ± 1.7 µU/mL and 19.8 ± 1.7 ^a,b µU/mL	6.1 ± 0.4 µmol H2O2 eq/L and 6.1 ± 0.4 ^a,b µmol H2O2 eq/L	13.5 ± 1.3 nmol/mg Protein and 13.5 ± 1.3 ^a,b nmol/mg Protein	57.2 ± 1.9%	20.1 ± 1.5%	22.7 ± 1.5%	–	–	–	–	–	–	–	–
O=c1n(Cc2nnc(S)o2)c2cc(Cl)c(Cl)cc2n1Cc1nnc(S)o1 [Compound 7, 5,6-Dichloro-1,3-bis((5-mercapto-1,3,4-oxadiazol-2-yl)methyl)-1H-benzo[d]imidazol-2(3H)-one]	27.4 ± 1.58 µM	1.4	19.1 ± 1.1 µM	2.01	10.6 ± 0.61 µM	3.63	38.5 ± 2.2 µM	–	–	–	–	–	–	30.9 ± 2.7 µU/mL and 30.9 ± 2.7 ^a,b µU/mL	25.3 ± 2.0 µU/mL and 25.3 ± 2.0 ^a,b µU/mL	8.6 ± 0.7 µmol H2O2 eq/L and 8.6 ± 0.7 ^a,b µmol H2O2 eq/L	7.6 ± 0.6 µmol H2O2 eq/L and 7.6 ± 0.6 ^a,b µmol H2O2 eq/L	9.4 ± 1.0	11.3 ± 1.0 nmol/mg Protein and 11.3 ± 1.0 ^a,b nmol/mg Protein	38.4 ± 2.1%	cells in G2/M phase [15]: 38.4 ± 1.9%; cells in S phase [15]: 23.2 ± 1.5%; cells in G0/G1 phase [16]: 69.0 ± 2.0%; cells in G2/M phase [16]: 13.8 ± 1.2%; cells in S phase [16]: 17.2 ± 1.3%
O=C(Cn1c(=O)n(CC(=O)NNC(=O)c2cc3cc(Br)ccc3oc2=O)c2cc(Cl)c(Cl)cc21)NNC(=O)c1cc2cc(Br)ccc2oc1=O [Compound 12c, N′,N′′′ -(2,2′-(5,6-dichloro-2-oxo-1H-benzo[d]imidazole-1,3(2H)-diyl)bis(acetyl))bis(6-bromo-2-oxo-2H-chromene-3-carbohydrazide)]	10.2 ± 0.58 µM	2.01	9.7 ± 0.56 µM	2.21	11.5 ± 0.66 µM	1.86	21.5 ± 1.24 µM	30.4 ± 2.6 µU/mL and 30.4 ± 2.6 ^a,b µU/mL	8.5 ± 0.7 µmol H2O2 eq/L and 8.5 ± 0.7 ^a,b µmol H2O2 eq/L	9.5 ± 0.8 nmol/mg Protein and 9.5 ± 0.8 ^a,b nmol/mg Protein	68.4 ± 2.4%	16.4 ± 1.5%	15.2 ± 1.3%	–	28.8 ± 2.2 µU/mL and 28.8 ± 2.2 ^a,b µU/mL	–	8.3 ± 0.6 µmol H2O2 eq/L and 8.3 ± 0.6 ^a,b µmol H2O2 eq/L	–	10.2 ± 1.0 nmol/mg Protein and 10.2 ± 1.0 ^a,b nmol/mg Protein	–	cells in G0/G1 phase [16]: 72.2 ± 2.3%; cells in G2/M phase [16]: 12.5 ± 1.1%; cells in S phase [16]: 15.3 ± 1.2%
O=C(Cn1c(=O)n(CC(=O)NNC(=O)c2cc3cc(Cl)cc(Cl)c3oc2=O)c2cc(Cl)c(Cl)cc21)NNC(=O)c1cc2cc(Cl)cc(Cl)c2oc1=O [Compound 12d, N′,N′′′ -(2,2′-(5,6-dichloro-2-oxo-1H-benzo[d]imidazole-1,3(2H)-diyl)bis(acetyl))bis(6,8-Dichloro-2-oxo-2H-chromene-3-carbohydrazide)]	15.5 ± 0.89 µM	2.01	21.9 ± 1.26 µM	1.42	12.8 ± 0.73 µM	2.4	31.2 ± 1.8 µM	27.3 ± 2.2 µU/mL and 27.3 ± 2.2 ^a,b µU/mL	7.9 ± 0.6 µmol H2O2 eq/L and 7.9 ± 0.6 ^a,b µmol H2O2 eq/L	10.1 ± 0.9 nmol/mg Protein and 10.1 ± 0.9 ^a,b nmol/mg Protein	62.1 ± 2.1%	19.0 ± 1.5%	18.9 ± 1.4%	29.7 ± 2.4 µU/mL and 29.7 ± 2.4 ^a,b µU/mL	–	8.4 ± 0.6 µmol H2O2 eq/L and 8.4 ± 0.6 ^a,b µmol H2O2 eq/L	–	9.7 ± 1.0	–	40.1 ± 2.0%	cells in G2/M phase [15]: 36.4 ± 1.8%
OO [Compound H2O2, hydrogen peroxide, reference compound]	–	–	–	–	–	–	–	40.7 ± 3.0 ^a µU/mL	10.5 ± 0.8 ^a µmol H2O2 eq/L	7.1 ± 0.9 ^a nmol/mg Protein	–	–	–	41.5 ± 3.2 ^a µU/mL	39.5 ± 2.7 ^a µU/mL	10.4 ± 0.7 ^a µmol H2O2 eq/L	10.1 ± 0.7 ^a µmol H2O2 eq/L	–	7.4 ± 0.9 ^a nmol/mg Protein	–	–
